Assay: passive permeability, PAMPA, ADME assay (AID 1508612)
Conditions: pH 7.4, 30.0 min, 50.0 µM

| SMILES | Papp [×10⁻⁶ cm/s] |
| --- | --- |
| O=C(NC1CCCc2c1cnn2-c1ccc(F)cc1F)c1ccccc1 (centres undefined) | > 1000 |
| CNc1oc(-c2cccc3ccccc23)nc1C(=O)OC | > 1000 |
| CCc1cccc(NS(=O)(=O)c2ccc3c(c2)CC(C)N3C(=O)C2CC2)c1 (centres undefined) | > 1000 |
| Cc1ccc(-c2cc(C(=O)NCc3ccc(S(N)(=O)=O)cc3)c3ccccc3n2)cc1C | 71 |
| c1cc(-c2cc(-c3ccncc3)c3cncn3c2)c2[nH]ccc2c1 | 157 |
| O=C(Nc1nc(-c2ccccc2)cs1)c1ccccc1-n1cnnn1 | < 1 |
| CCN(CC)CCNC(=O)c1c(C)[nH]c(/C=C2\C(=O)Nc3ccc(F)cc32)c1C | 235 |
| COc1ccc(CN2CCc3nc(N4CCN(c5ccc(F)cc5)CC4)ncc3C2)c(OC)c1OC | > 1000 |
| NC(=O)N1CCN(c2nc(-c3ccc(Br)cc3)cs2)CC1 | 958 |
| CCc1ccccc1-n1c(SCC(=O)Nc2ccc(C)cc2)nc2n[nH]c(C)c2c1=N | 95.3 |
| Fc1cnc(-c2ccccc2C(F)F)nc1NCc1ccc(-c2ccn[nH]2)cc1 | > 1000 |
| Cn1cc(Cl)c(C2N=C(Nc3nc4ccccc4o3)NC3=C2C(=O)CCC3)n1 (centres undefined) | 633 |
| CCOc1ccc(C2C(C(=O)Nc3ccccc3OC)=C(C)Nc3c(C(=O)Nc4cccc(C)c4)cnn32)cc1 (centres undefined) | 871 |
| O=C1CCCC2=C1C(c1[nH]ncc1Br)N=C(Nc1nc3ccccc3o1)N2 (centres undefined) | 797 |
| C=C1C(=O)OC2C1CCC(C)C1(O)C=CC(=O)C21C (centres undefined) | 64.6 |
| COc1ccc(N(C)C(=O)c2cc3c(s2)-c2ccccc2OC3)cc1 | 822 |
| CCCc1cc(=O)oc2c3c(c4c(c12)OC(C)(C)C=C4)OC(C)C(C)C3O (centres undefined) | > 1000 |
| Cc1nnn(C)c1-c1cnc2c3ccc(C(C)(C)O)cc3n([C@H](c3ccccc3)C3CCOCC3)c2c1 | 746 |
| OC1(c2ccc(Cl)cc2)CCN(Cc2c[nH]c3ccccc23)CC1 | > 1000 |
| COCC(C)Nc1ncnc2c1cnn2-c1ccc(C)c(C)c1 (centres undefined) | 690 |
| Cc1ccc(O)c(-c2cc(-c3ccccc3C)[nH]n2)c1 | 511 |
| COc1oc(-c2cccc3ccccc23)nc1C(=O)O | 1.44 |
| Fc1ccccc1Nc1nc(-c2ccncc2)nc2ccccc12 | 839 |
| CC(=O)NC(c1cccs1)c1cc(Br)c2cccnc2c1O (centres undefined) | 73 |
| CN1CCN(C(=O)c2ccc3cc(CCNc4ncnc5ccc(C#N)cc45)ccc3c2)CC1 | 545 |
| CC(C)c1ccccc1-c1ncc(F)c(NCC2CCN(c3cccnc3)CC2)n1 | > 1000 |
| COC(=O)C1=COC(C)C2CN3CCc4c([nH]c5cc(OC)c(OC)cc45)C3CC12 (centres undefined) | 366 |
| Cc1n[nH]c(C)c1CCc1nc2c3ccccc3nc(SCC(=O)Nc3ccc(F)cc3)n2n1 | 122 |
| COC(=O)c1ccc(NC(=O)c2nc3ccccc3n(C)c2=O)cc1 | 350 |
| FC(F)(F)c1cccc(N2CCN(C(=S)Nc3ccccn3)CC2)c1 | > 1000 |

Second part, the molecule after the results:

| Papp [×10⁻⁶ cm/s] | SMILES |
| --- | --- |
| 891 | O=C(Nc1ccccc1F)c1nc(S(=O)(=O)Cc2ccccc2F)ncc1Cl |
| > 1000 | COc1cc(C(=O)N2CCN(c3cc(Cl)ccc3Cl)CC2)cc(OC)c1OC |
| 205 | O=c1cc(/C=C/c2c(F)cccc2Cl)[nH]c2ccccc12 |
| > 1000 | Cc1csc2nc(-c3cccc(NC(=O)c4cccc(F)c4)c3)cn12 |
| 924 | NC(=O)C1CCN(c2ncc(-c3cccc(N4CCCCC4)c3)s2)CC1 |
| 217 | COc1ccc2cc1Oc1ccc(cc1)C[C@@H]1c3c(cc(OC)c4c3Oc3cc5c(cc3O4)CCN[C@H]5C2)CCN1C |
| 7.99 | NC(=O)C(=O)N/N=C/c1ccc([N+](=O)[O-])o1 |
| 36.6 | COc1cccc(CNc2ccc(S(=O)(=O)Nc3ncc(-c4ccccc4)s3)cc2)c1O |
| > 1000 | CCCN1CNc2c(c(=O)[nH]c(=S)n2CCc2cccc(Cl)c2Cl)C1 |
| > 1000 | COc1ccccc1N1CCN(CCN(C(=O)c2ccc(F)cc2)c2ccccn2)CC1 |
| 161 | O=C(Cc1cccc(OC(F)(F)F)c1)Nc1ccc(CCCCc2nnc(NC(=O)Cc3ccccn3)s2)nn1 |
| 412 | COCCNc1ncc(-c2cccc(O)c2)c2c1OCC2 |
| > 1000 | CC(C)NC(=O)C1CCN(C(=O)c2cc3sccc3n2Cc2ccc(Cl)cc2)CC1 |
| > 1000 | O=C(c1nc(-c2ccc(Cl)nc2)c2ccccn12)N1CCCC1 |
| > 1000 | Cc1ccc(CCNC(=O)C2CCCN(C(=O)c3cc4sccc4n3C)C2)cc1 (centres undefined) |
| > 1000 | Cc1cc(NC(=O)c2ccc(NC(=O)Cc3ccc(Cl)c(Cl)c3)cc2)no1 |
| 735 | COc1cccc(NC(=S)N2CCN(c3cccc(C(F)(F)F)c3)CC2)n1 |
| 124 | CCCCN(C)C(=O)c1c(C)sc2ccn(CCC)c(=O)c12 |
| 18.1 | O=[S+]([O-])(Nc1nccs1)c1ccc(NCc2cc(F)cc(Cl)c2O)cc1 |
| 2.4 | COc1cc2nc(N3CCCC3)nc(NCCCCCN3CCCC3)c2cc1OC |
| 916 | Cc1cccc(-n2ncc3c2CCCC3NC(=O)c2c(F)ccc(F)c2F)c1C (centres undefined) |
| 288 | CN(Cc1ccccc1)C(=O)c1ccc(S(=O)(=O)Nc2ccccc2)cc1 |
| > 1000 | CN1CCC(N(Cc2cccs2)c2ccccc2)CC1 |
| > 1000 | CC1(C)CNc2cc(NC(=O)c3cccnc3NCc3ccncc3)ccc21 |
